Measurements reported in patent US7488844B2, “Therapeutic agents” (AstraZeneca AB, priority 2001, dated 2009).

Each compound was assayed against T1, PPARγ (Homo sapiens, UniProt P37231) (assay: GAL4-PPARγ ligand binding domain luciferase reporter transactivation in transiently transfected U2-OS cells). Settings: selectivity PPARα over PPARγ.
T1 construct: expressed in transfected cells; host or cells: U2-OS (human osteogenic sarcoma), transient electroporation
T1 sequence (P37231 238-503 limits assumed): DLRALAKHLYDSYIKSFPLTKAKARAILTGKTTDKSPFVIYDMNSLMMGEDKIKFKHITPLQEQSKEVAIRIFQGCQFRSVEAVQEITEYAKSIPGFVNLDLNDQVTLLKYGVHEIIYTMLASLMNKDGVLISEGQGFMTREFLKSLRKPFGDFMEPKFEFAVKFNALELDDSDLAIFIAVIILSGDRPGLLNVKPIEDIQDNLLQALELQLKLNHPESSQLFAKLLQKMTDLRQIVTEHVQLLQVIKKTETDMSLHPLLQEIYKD
Type: cell-based
Procedure: The compounds of Examples 5-9 were tested in the assays described in WO03/051821.
Compounds were dissolved in DMSO to obtain 16 mM stock solutions. Before assays, stock solutions were further diluted in DMSO and culture media.
U2-OS, (Osteogenic sarcoma, Human) was purchased from ATCC, USA. Cells were expanded and refrozen in batches from passage number six. Cells were cultured in Dulbecco's modified Eagle medium (DMEM) with 25 mM glucose, 2 mM glutamin or 4 mM L-alanyl-L-glutamine, 10% fetal calf serum, at 5% CO2. Phosphate buffered saline (PBS) without addition of calcium or magnesium was used. All cell culture reagents were from Gibco (USA) and 96-well cell culture plates were purchased from Wallah.
Standard recombinant DNA techniques were carried out as described by Ausubel (7). The Luciferase reporter vector, pGL5UAS (clone consists of five copies of the GAL4 DNA binding sequence, 5′-[…]-3′, cloned into the SacI/XhoI sites of pGL3-Promoter (Promega). The SacI/XhoI fragment carrying the UAS sites was constructed using annealed overlapping oligonucleotides.
Expression vectors used are based upon pSG5 (Stratagene). All vectors contain an EcoRI/NheI fragment encoding the DNA binding domain of GAL4 (encoding amino acid positions 1-145 of database accession number P04386) followed by an in-frame fusion to a fragment encoding the nuclear localisation sequence from T antigen of Polyoma Virus.
The nuclear localisation sequence was constructed using annealed overlapping oligonucleotides creating NheI/KpnI sticky ends(5′-[…]-3′). The ligand binding domains from human and mouse PPARa and human and mouse PPARy were PCR amplified as KpnI/BamHI fragments and cloned in frame to the GAL4 DNA binding domain and the nuclear localisation sequence. The sequence of all plasmid constructs used were confirmed by sequencing. The following expression vectors were used for transient transfections:
Frozen stocks of cells from passage number six were thawed and expanded to passage number eight before transfections. […]

ratio EC50 (PPARγ): EC50 (PPARα)	Structure (SMILES)
>900	CCO[C@@H](Cc1ccc(OCC(=O)N(Cc2ccc(C(F)(F)F)cc2)Cc2ccc(C(F)(F)F)cc2)cc1)C(=O)O [Example 25, (2S)-3-[4-(2-{bis[4-(Trifluoromethyl)benzyl]amino}-2-oxoethoxy)phenyl]-2-ethoxypropanoic acid]
>400	CCO[C@@H](Cc1ccc(OCC(=O)N(Cc2ccc(Cl)cc2)Cc2ccc(C(C)(C)C)cc2)cc1)C(=O)O [Example 23, (2S)-3-(4-{2-[(4-tert-Butylbenzyl)(4-chlorobenzyl)amino]-2-oxoethoxy}phenyl)-2-ethoxypropanoic acid]
>1000	CCO[C@@H](Cc1ccc(OCC(=O)N(Cc2ccc(Cl)cc2)Cc2ccc(Cl)cc2)cc1)C(=O)O [Example 22, (2S)-3-(4-{2-[bis(4-Chlorobenzyl)amino]-2-oxoethoxy}phenyl)-2-ethoxypropanoic acid]
